Tests used:
PTEN mRNA [1] = experiment: Immunoblot of phosphorylated Akt after GeneBloc transfection of PTEN negative PC-3 cells; type: cell-based, human; conditions: PC-3 cells (PTEN negative), 30 nM, 48 h
Procedure: More particularly, HeLa cells (380.000 cells/plate) and PC-3 cells (450.000 cells/plate) were transfected in parallel on 10 cm plates. Each cell line was treated for 48 h in duplicate samples with 30 nM of PTEN GeneBloc 53 or GBC. The cell extracts were analyzed by immunoblotting for the relative amounts of p110, PTEN and phosphorylated Akt (P*-Akt) as indicated on the right. The band which migrates just above the PTEN signal was caused by unspecific reaction of the secondary antibody. […]
Cells were washed twice with cold phosphate-buffered saline and lysed at 4° C. in lysis buffer containing 20 mM Tris (pH 7.5), 137 mM NaCl, 15% (vol/vol) glycerol, 1% (vol/vol) Nonidet P-40 (NP-40), 2 mM phenylmethylsulfonyl fluoride, […], 20 mM leupeptin, 2 mM benzamidine, 1 mM sodium vanadate, 25 mM […]-glycerol phosphate, 50 mM NaF and 10 mM NaPPi. Lysates were cleared by centrifugation at 14,000× g for 5 minutes and aliquots of the lysates were analyzed for protein expression by Western-blotting: Samples were separated by SDS-PAGE and transferred to nitrocellulose-filters (Schleicher & Schuell). […] Bound antibody was detected using anti-mouse- or anti-rabbit-conjugated horse radish peroxidase (Transduction Laboratories, BD) in TBST, washed, and developed using the SuperSignal West Dura (Pierce) or ECL (Amersham) chemoluminescence substrates. […]

PTEN mRNA [2] = experiment: Relative PTEN RNA level by Taqman analysis; type: cell-based, rat; conditions: 3Y1 cells, parallel samples of BrdU experiment
Procedure: The RNA of cells transfected in 96-wells was isolated and purified using the Invisorb RNA HTS 96 kit (InVitek GmbH, Berlin). Inhibition of PTEN mRNA expression was detected by real time RT-PCR (Taqman) analysis using PTEN 5′ primer […] (SEQ ID No. 47), PTEN 3′ primer […] (SEQ ID No. 48) and the Taqman probe Fam-[…]-Tamra (SEQ ID No. 34). The reaction was carried out in 50 μl and assayed on the ABI PRISM 7700 Sequence detector (Applied Biosystems) according to the manufacturer's instructions under the following conditions: 48° C. for 30 min, 95° C. for 10 min, followed by 40 cycles of 15 sec at 95° C. and 1 min at 60° C.
3Y1 cells were used, because these untransformed rat fibroblasts are very sensitive to transfection conditons and are prone to arrest or even undergo apoptosis. Subconfluent 3Y1 cells in 96 wells were treated with PTEN GeneBloc 48, GeneBloc 53 or GBC as a control. On day 2 the cells were synchronized in low serum. During days 3 and 4 the cells were released into the cell cycle by serum stimulation at various time points. BrdU was added for the last 2 h of incubation. Untreated cells and cells that were treated with Aphidicolin for 24 h were used as controls. RNA knock down was analyzed in parallel samples. The rate of synthesis was determined via the amount of incorporated BrdU.

ucuccuuTTGTTTCTGcuaacga (UCUCCUUTTGTTTCTGCUAACGA; chemistry not fully specified) [PTEN 53, third generation antisense oligonucleotide (GeneBloc) against PTEN]
phosphorylated Akt (P*-Akt) (immunoblot) (PTEN mRNA [1]): generate phosphorylated Akt irrespective
phosphorylated Akt (P*-Akt) (immunoblot) (PTEN mRNA [1]; listed as PTEN GeneBloc 53): had no effect
PTEN mRNA level (PTEN/actin RNA) (PTEN mRNA [2]): remained downregulated

Reference: patent publication US20030135033A1, “Compounds and methods for the identification and/ or validation of a target” (priority 2002, published 2003)
